The subject of this assay is HCT116 cell. The assay is described as follows: Inhibitory activity against cancer cells (MTT cell viability), HCT116. The assay is classed as cell-based, human. The conditions noted are these: Homo sapiens, HCT 116, 48 hr incubation. The method, then:
The inhibitory activities of biguanide derivatives against cancer cells were evaluated in the cell line SK-MEL-28 derived from human Melanoma cell, Miapaka-2 cell line derived from human pancreatic cancer cell and HCT116 cell line derived from human colorectal cancer cell by measuring the concentration that inhibits 50% of the growth of the cell lines (the half maximal inhibitory concentration, IC50).
Firstly, SK-MEL-28 cells were grown to be density of 5,000 cells/well in RPMI-1640 media supplemented with 10% (v/v) bovine calf serum, on 96-well plates for 16 hr. To measure the IC50 of each compound, the cells were incubated for 48 hr with the 100 mM PBS stock compounds at an amount of 10 mM, 1 mM, 200 uM, 40 uM, 8 uM, 1.6 uM, 0.32 uM or 0.064 uM; 50 mM PBS and EtOH stock compounds at an amount of 1 mM, 200 uM, 40 uM, 8 uM, 1.6 uM, 0.32 uM and 0.064 uM; and 50 mM DMSO stock compounds at an amount of 100 uM, 25 uM, 6.25 uM, 1.56 uM, 0.39 uM, 0.10 uM and 0.02 uM, respectively. To test the viable cells after incubation with each compound, the cell cultures were incubated additionally for 2 hr in the presence of MTT. The produced formazan crystals were dissolved with dimethyl sulfoxide and then measured by detecting the absorbance at 560 nm.
After the 48 hr incubation, the viable cells were counted on the well plates treated with the compounds of the Examples relative to the count of the viable cells on the non-treated plates, and then was represented as the cell viability (%). By using the cell viability (%) result, the cell viability curve was plotted, and IC50 was calculated from the curve to evaluate the inhibitory activity against cancer cells.
The inhibitory activities of biguanide derivatives against cancer cells of Miapaca-2 cell and HCT116 cell were evaluated according to the substantially same method as described in SK-MEL-28 cell, except that DMEM media supplemented with 10% (v/v) bovine calf serum was used instead of RPMI-1640 media supplemented with 10% (v/v) bovine calf serum for SK-MEL-28 cell.
As for `CN(C)C(=N)NC(=N)Nc1ccc(SCC(=O)N2CCCCC2)cc1` [Example 61, N1,N1-dimethyl-N5-4-(2-oxo-2-(piperidin-1-yl)ethylthio)phenyl biguanide], the IC50 is > 100 µM.
Consider `N=C(NC(=N)Nc1cccnc1)Nc1ccc(C(F)(F)F)cc1` [Example 62, N1-3-pyridine-N5-(4-trifluoromethyl)phenyl biguanide], for which the IC50 was > 100 µM.
Then `N=C(NC(=N)Nc1cccnc1)Nc1ccc(OC(F)(F)F)cc1` [Example 63, N1-3-pyridine-N5-(4-trifluoromethoxy)phenyl biguanide], with > 100 µM; and `N=C(NCc1ccc(C(F)(F)F)cc1)NC(=N)Nc1cccnc1` [Example 64, N1-3-pyridine-N5-(4-trifluoromethyl)benzyl biguanide], with 29.2 µM; and `N=C(NC(=N)Nc1ccc(F)c(C(F)(F)F)c1)Nc1cccnc1` [Example 65, N1-3-pyridine-N5-(4-fluoro-3-trifluoromethyl)phenyl biguanide], with > 100 µM.
Then `N=C(NC(=N)Nc1cnccn1)Nc1ccc(OC(F)(F)F)cc1` [Example 66, N1-2-pyrazine-N5-(4-trifluoromethoxy)phenyl biguanide], with > 100 µM.
Then `N=C(NC(=N)Nc1cnccn1)Nc1ccc(C(F)(F)F)cc1` [Example 67, N1-2-pyrazine-N5-(4-trifluoromethyl)phenyl biguanide], with 50.7 µM; and `N=C(NC(=N)NC1CCCC1)Nc1ccc(OC(F)(F)F)cc1` [Example 68, N1-cyclopentyl-N5-(4-trifluoromethoxy)phenyl biguanide], with 53.1 µM; and `N=C(NC(=N)NC1CCCC1)Nc1ccc(F)cc1` [Example 69, N1-cyclopentyl-N5-(4-fluoro)phenyl biguanide], with 68.5 µM.
In the case of `N=C(NCc1ccco1)NC(=N)Nc1ccc(Cl)cc1` [Example 70, N1-furan-2-ylmethyl-N5-(4-chloro)phenyl biguanide], the midpoint of inhibition, the IC50, lay at 13.5 µM.
For `N=C(NCc1ccco1)NC(=N)Nc1ccc(OC(F)(F)F)cc1` [Example 71, N1-furan-2-ylmethyl-N5-(4-trifluoromethoxy)phenyl biguanide] the value was 6.9 µM.
On to `N=C(NCc1ccco1)NC(=N)Nc1ccc(C(F)(F)F)cc1` [Example 72, N1-furan-2-ylmethyl-N5-(4-trifluoromethyl)phenyl biguanide], for which half-maximal inhibition (IC50) was put at 8.8 µM.
For `N=C(NC(=N)Nc1ccc(-c2ccccc2)cc1)Nc1ccc(OC(F)(F)F)cc1` [Example 75, N1-(4-trifluoromethoxy)phenyl-N5-(N-biphenyl-4-yl) biguanide] the value was 8.21 µM; for `N=C(NC(=N)N1CCCC1)Nc1ccc(CCNC(=O)CCCCC2CC3NC(=O)NC3S2)cc1` (stereo not shown) [Example 77, N-(4-(3-(imino(pyrrolidin-1-yl)methyl)guanidino)phenethyl)-5-(2-oxohexahydro-1H-thieno[2,3-d]imidazol-5-yl)pentaneamide], > 100 µM; for `CC1CCCCN1C(=N)NC(=N)Nc1ccc(CCNC(=O)CCCCC2CC3NC(=O)NC3S2)cc1` (stereo not shown) [Example 78, N-(4-(3-(imino(2-methylpiperidin-1-yl)methyl)guanidino)phenethyl)-5-(2-oxohexahydro-1H-thieno[2,3-d]imidazol-5-yl)pentanamide], > 100 µM.
For `CC1CC(C)CN(C(=N)NC(=N)Nc2ccc(CCNC(=O)CCCCC3CC4NC(=O)NC4S3)cc2)C1` (stereo not shown) [Example 79, N-(4-(3-((3,5-dimethylpiperidin-1-yl)(imino)methyl)guanidino)phenethyl)-5-(2-oxohexahydro-1H-thieno[2,3-d]imidazol-5-yl)pentanamide], the IC50 is > 100 µM.
Consider `N=C(NC(=N)N1CC=CCC1)Nc1ccc(CCNC(=O)CCCCC2CC3NC(=O)NC3S2)cc1` (stereo not shown) [Example 80, N-(4-(3-((5,6-dihydropyridin-1(2H)-yl)(imino)methyl)guanidino)phenethyl)-5-(2-oxohexahydro-1H-thieno[2,3-d]imidazol-5-yl)pentanamide], for which the IC50 was > 100 µM.
For `C[C@@H]1CCC[C@H](C)N1C(=N)NC(=N)Nc1ccc(CCNC(=O)CCCCC2CC3NC(=O)NC3S2)cc1` (stereo partly drawn) [Example 81, N-(4-(3-(((2R,6S)-2,6-dimethylpiperidin-1-yl)(imino)methyl)guanidino)phenethyl)-5-(2-oxohexahydro-1H-thieno[2,3-d]imidazol-5-yl)pentanamide] the value was > 100 µM; for `N=C(NC(=N)N1CCCC1)Nc1ccc(NC(=O)CCCCC2CC3NC(=O)NC3S2)cc1` (stereo not shown) [Example 82, N-(4-(3-(imino(pyrrolidin-1-yl)methyl)guanidino)phenyl)-5-(2-oxohexahydro-1H-thieno[2,3-d]imidazol-5-yl)pentanamide], > 100 µM; for `N=C(NC(=N)N1CCCC1)Nc1ccc(CNC(=O)c2ccccc2-c2c3ccc(=O)cc-3oc3cc(O)ccc23)cc1` [Example 83, 2-(6-hydroxy-3-oxo-3H-xanthen-9-yl)-N-(4-(3-(imino(pyrrolidin-1-yl)methyl)guanidino)benzyl)benzamide], 56.8 µM.
`C[C@@H]1CCC[C@H](C)N1C(=N)NC(=N)Nc1ccc(CNC(=O)c2ccccc2-c2c3ccc(=O)cc-3oc3cc(O)ccc23)cc1` [Example 84, N-(4-(3-(((2R,6S)-2,6-dimethylpiperidin-1-yl)(imino)methyl)guanidino)benzyl)-2-(6-hydroxy-3-oxo-3H-xanthen-9-yl)benzamide] yielded an IC50 of 27.4 µM.
Then `CC1CC(C)CN(C(=N)NC(=N)Nc2ccc(CNC(=O)c3ccccc3-c3c4ccc(=O)cc-4oc4cc(O)ccc34)cc2)C1` (stereo not shown) [Example 85, N-(4-(3-((3,5-dimethylpiperidin-1-yl)(imino)methyl)guanidino)benzyl)-2-(6-hydroxy-3-oxo-3H-xanthen-9-yl)benzamide], with 28.8 µM; and `CC1CCCN(C(=N)NC(=N)Nc2ccc(CNC(=O)c3ccccc3-c3c4ccc(=O)cc-4oc4cc(O)ccc34)cc2)C1` (stereo not shown) [Example 86, 2-(6-hydroxy-3-oxo-3H-xanthene-9-yl)-N-(4-(3-(imino(3-methylpiperidine-1-yl)methyl)guanidino)benzyl)benzamide], with 53.2 µM; and `N=C(NC(=N)N1CCc2ccccc2C1)Nc1ccc(OC(F)(F)F)cc1` [Example 87, N—(N-(4-(trifluoromethoxy)phenyl)carbamimidoyl)-3,4-dihydroisoquinolin-2(1H)-carboximidamide], with 2.57 µM.
For `N=C(NC(=N)N1CCc2ccccc21)Nc1ccc(OC(F)(F)F)cc1` [Example 88, N—(N-(4-(trifluoromethoxy)phenyl)carbamimidoyl)indoline-1-carboximidamide] the value was 7.42 µM.
For `N=C(NC(=N)N1CCc2ccccc21)Nc1ccc(Oc2ccccc2)cc1` [Example 90, N—(N-(4-phenoxyphenyl)carbamimidoyl)indoline-1-carboximidamide] the value was 27.7 µM; for `N=C(NC(=N)N1CCc2ccccc21)Nc1cccc(Oc2ccccc2)c1` [Example 91, N—(N-(3-phenoxyphenyl)carbamimidoyl)indoline-1-carboximidamide], 11 µM.
For the molecule `N=C(Nc1nc2cc(OC(F)(F)F)ccc2[nH]1)N1CCCC1` [Example 92, N-(5-(trifluoromethoxy)-1H-benzo[d]imidazol-2-yl)pyrrolidine-1-carboximidamide], the IC50 is > 100 µM.

The values above are taken from patent publication US10221190B2, “Biguanide compounds and use thereof” (IMMUNOMET THERAPEUTICS INC., priority 2013, dated 2019).
